From patent publication US12612410B2 (CHILDREN'S HOSPITAL MEDICAL CENTER, priority 2020, dated 2026)

What was measured:
Assay type in all cases: cell-based
IRAK4 = molecular target: T1, IRAK4 (Homo sapiens, UniProt Q9NWZ3); experiment: Reaction Biology NanoBRET target engagement assay, IRAK4; details: transfected HEK-293 cells
T1 sequence (Q9NWZ3 1-460): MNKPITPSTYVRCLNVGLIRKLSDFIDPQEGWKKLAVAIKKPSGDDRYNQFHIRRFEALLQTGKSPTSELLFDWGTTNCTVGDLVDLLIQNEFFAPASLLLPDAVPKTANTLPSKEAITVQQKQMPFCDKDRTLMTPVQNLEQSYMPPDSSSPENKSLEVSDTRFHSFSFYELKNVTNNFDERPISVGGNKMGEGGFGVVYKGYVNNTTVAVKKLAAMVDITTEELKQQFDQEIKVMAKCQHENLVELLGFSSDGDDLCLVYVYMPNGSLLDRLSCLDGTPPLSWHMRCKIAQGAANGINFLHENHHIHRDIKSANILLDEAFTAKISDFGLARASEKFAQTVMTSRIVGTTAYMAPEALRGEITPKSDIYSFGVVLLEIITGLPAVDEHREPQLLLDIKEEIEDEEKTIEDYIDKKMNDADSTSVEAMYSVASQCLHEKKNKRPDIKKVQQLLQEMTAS
From the text: The NanoBRET assay measures kinase engagement in real time in the context of the intact cell. Unlike the previously described biochemical kinase assay methodologies in Examples 26-27, the NanoBRET assay measures the binding and activity characteristics under equilibrium conditions using full-length kinases in the presence of cellular concentrations of ATP in live, uncompromised cells. As such, the assay provides a more relevant assessment of kinase potency and selectivity that would be expected to be observed in the native cellular environment, where potency is often considerably lower than that observed in the isolated biochemical assays (Vasta, J. D. et al., (2018) Cell Chem. Biol. 25, 206-214). The assay uses a Kinase-NanoLuc® fusion vector expressing a kinase protein to which a luciferase tag has been added, a cell-permeant fluorescent NanoBRET™ tracer, a NanoLuc® substrate, and an extracellular NanoLuc® inhibitor. Upon expression of the luciferase-tagged kinase, cells will produce a strong BRET signal only in the presence of the NanoBRET™ tracer. The extracellular NanoLuc® inhibitor ensures that the BRET signal observed emanates only from live cells. Because the BRET signal has tight distance constraints, addition of the test compound will decrease the BRET signal if the compound competes with the NanoBRET™ tracer for binding to the kinase domain. Under the appropriate tracer conditions established by the manufacturer, quantitative intracellular affinity and relative potency can then be determined using Mass Action model equations.
HEK-293 cells were purchased from ATCC. FuGENEHD Transfection Reagent, Kinase-NanoLucfusion plasmids, Transfection Carrier DNA, NanoBRETTracers and dilution buffer, NanoBRETNano-Glo Substrate, Extracellular NanoLucInhibitor were obtained from Promega.
Assays were conducted following Promega assay protocol with some modifications. HEK-293 Cells were transiently transfected with Kinase-NanoLucFusion Vector DNA by FuGENEHD Transfection Reagent. Testing compounds were delivered into 384 well assay plate by Echo 550 (Labcytelnc, Sunnyvale, CA). Transfected cells were harvested and mixed with NanoBRETTracer Reagent and dispensed into 384 well plates and incubated at 37° C. in 5% CO2 cell culture incubator for 1 hour. The NanoBRETNano-Glo Substrate plus Extracellular NanoLucInhibitor Solution were added into the wells of the assay plate and incubated for 2-3 minutes at room temperature. The donor emission wavelength (460 nm) and acceptor emission wavelength (600 nm) were measured in the EnVisionplate reader. The BRET Ratios were calculated. BRET Ratio=[(Acceptor sample÷Donor sample)−(Acceptor no-tracer control÷Donor no-tracer control)]. The IC50 values of compounds were calculated with Prism GraphPad program.
NanoBRET™ Target Engagement Assay Protocol
1. Transient Transfection of HEK-293 Cells NanoLuc® Fusion Vector DNA
• 1). Cultivate HEK-293 cells (70-80% confluence) appropriately prior to assay. Trypsinize and collect HEK-293 cells. • 2). Prepare lipid: DNA complexes as follows: • a. Prepare a […] solution of DNA in Opti-MEM without serum that consists of the following ratios of carrier DNA and DNA encoding NanoLuc® fusion. 9.0 µg/mL of Transfection Carrier DNA, […] of NanoLuc fusion vector DNA and 1 mL of Opti-MEM without phenol red. Mix thoroughly. • b. Add 30 l of FuGENE HD Transfection Reagent into each milliliter of DNA mixture to form lipid: DNA complex. • c. Mix by inversion 10 times. • d. Incubate at ambient temperature for 20 minutes to allow complexes to form. • 3). In a sterile, conical tube, mix 1 part of lipid: DNA complex with 20 parts of HEK-293 cells in suspension. Mix gently by inversion 5 times. • 4). Dispense cells+lipid: DNA complex into a sterile tissue culture dish and incubate for 22-24 hours. 2. Addition of Test Compounds (dry plate shooting)
Each test compound is delivered from the compound source plate to the wells of 384-well white NBS plate by Echo 550.
3. […]

NF-κB [1] = experiment: NF-kB SEAP reporter assay in THP-1-Blue NF-κB cells, Pam3CSK4 stimulation; details: Pam3CSK4 1 ng/mL, read-out: NF-κB Pam3SCK4 IC50
Description: (§1) THP-1-Blue NF-xB cells (InvivoGen) carrying a stable integrated NF-κB-inducible secreted embryonic alkaline phosphatase (SEAP) reporter construct were plated at a concentration of 1×10^5 cells per well. The cells were stimulated with Pam3CSK4 (1 ng/mL) or hIL1B (1 ng/mL). After 10-20 minutes, the cells were then treated with vehicle (DMSO) or serial dilutions of the test compounds (10 doses tested for each test compound, with a 1:10 dilution series starting at 1 μM or 3 μM) with a final volume of 200 μL for 24 hours at 37° C. After 24 hours, the cells were centrifuged and 20 μL supernatant was incubated with 180 μL QUANTI-Blue reagent at 37° C. for 30-60 minutes. The levels of NF-κB-induced was measured in a microplate reader at 620 nm.

NF-κB [2] = experiment: NF-kB SEAP reporter assay in THP-1-Blue NF-κB cells, hIL1B stimulation; details: hIL1B 1 ng/mL, read-out: NF-κB IL1B IC50
Description: as §1

Row | IC50 (IRAK4) | IC50 (NF-κB [1]; 24 h) | IC50 (NF-κB [2]; 24 h) | IC50 (NF-κB [1]; 24 hours) | IC50 (NF-κB [2]; 24 hours) | Compound
1 | < 0.5 nM | 11 nM | 5 nM | – | – | FC(F)c1cn2c(-c3cccc(N[C@H]4CNC[C@@H]4F)n3)cnc2cn1 [Compound 16, 6-(6-(difluoromethyl)imidazo[1,2-a]pyrazin-3-yl)-N-((3S,4S)-4-fluoropyrrolidin-3-yl)pyridin-2-amine]
2 | 1 nM | 9 nM | 11 nM | – | – | F[C@H]1CNC[C@@H]1Nc1cccc(-c2cnc3cnc(C4CC4)cn23)n1 [Compound 50, 6-(6-cyclopropylimidazo[1,2-a]pyrazin-3-yl)-N-((3S,4S)-4-fluoropyrrolidin-3-yl)pyridin-2-amine]
3 | < 0.5 nM | – | – | 11 nM | 70 nM | CC(C)(C)c1cn2c(-c3cccc(N[C@@H]4CCCNC4)n3)cnc2cn1 [Compound 129, (R)-6-(6-(tert-butyl)imidazo[1,2-a]pyrazin-3-yl)-N-(piperidin-3-yl)pyridin-2-amine]
4 | < 0.5 nM | 12 nM | 47 nM | – | – | FC(F)c1cn2c(-c3cccc(N[C@H]4CNCC[C@@H]4F)n3)cnc2cn1 [Compound 25, 6-(6-(difluoromethyl)imidazo[1,2-a]pyrazin-3-yl)-N-((3S,4S)-4-fluoropiperidin-3-yl)pyridin-2-amine]
5 | < 0.5 nM | – | – | 12 nM | 30 nM | CC(O)(c1cn2c(-c3cccc(N[C@H]4CNCC[C@@H]4F)n3)cnc2cn1)C(F)(F)F (single isomer, unassigned) [Compound 82]
6 | < 0.5 nM | 23 nM | 88 nM | – | – | CC(C)(O)c1cn2c(-c3nc(N[C@H]4CNCC[C@@H]4F)c(F)cc3F)cnc2cn1 [Compound 35, 2-(3-(3,5-difluoro-6-(((3S,4S)-4-fluoropiperidin-3-yl)amino)pyridin-2-yl)imidazo[1,2-a]pyrazin-6-yl)propan-2-ol]
7 | 0.6 nM | 20 nM | 57 nM | – | – | F[C@H]1CCNC[C@@H]1Nc1cccc(-c2cnc3cnc(C4CC4)cn23)n1 [Compound 51, 6-(6-cyclopropylimidazo[1,2-a]pyrazin-3-yl)-N-((3S,4S)-4-fluoropiperidin-3-yl)pyridin-2-amine]
8 | < 0.5 nM | 24 nM | 72 nM | – | – | CC(O)(c1cn2c(-c3cccc(N[C@@H]4CCCNC4)n3)cnc2cn1)C(F)(F)F (single isomer, unassigned) [Compound 81]
9 | 10 nM | – | – | 37 nM | 357 nM | O=C1CCCN1c1cn2c(-c3nc(N[C@H]4CNCC[C@@H]4F)c(F)cc3F)cnc2cn1 [Compound 107, 1-[3-[3,5-difluoro-6-[[(3S,4S)-4-fluoro-3-piperidyl]amino]-2-pyridyl]imidazo[1,2-a]pyrazin-6-yl]pyrrolidin-2-one]
